Reference: US11524935B2, “Methods for treating attention-deficit/hyperactivity disorder” (priority 2009, dated 2022)
“Also recorded” adds a separate entry of the source. Counter-ions that a name gives are not always drawn.

Assays:
[1] = system: extracellular monoaminergic transmitter levels; assay: in vivo brain microdialysis in prefrontal cortical and striatal brain areas of freely-moving rats; set-up: species or system rat
Description: Brain dialysates were collected from male Sprague-Dawey rats, which had been chronically implanted with cortical and striatal microdialysis guide cannulae and probes. The effects of different doses of test compound (10 and 30 mg/kg, administered subcutaneously) or vehicle (saline, 0.9% NaCl) were evaluated in three 50 baseline samples and eight consecutive 50 minute post-administration samples. The levels of dopamine, norepinephrine and serotonin for the two different brain areas were analyzed using HPLC/PCD analysis to determine any effects of the compound.
In FIGS. 4 and 5, results are expressed as the average percentage change compared to the individual's average baseline value. The arrow indicates the time of administration of test compound. The average value (and corresponding S.E.M.) are shown for each 50 minute sample period of n=12 rats for each group (NB: individual data points may be based on fewer samples owing to incidental loss of dialysate samples).

[2] = biological target: T1, human norepinephrine transporter (Homo sapiens, UniProt P23975); format: binding; settings: HEK-hNET cells
T1 construct: expressed in transfected cells; host or cells: HEK293
T1 sequence (P23975 whole entry): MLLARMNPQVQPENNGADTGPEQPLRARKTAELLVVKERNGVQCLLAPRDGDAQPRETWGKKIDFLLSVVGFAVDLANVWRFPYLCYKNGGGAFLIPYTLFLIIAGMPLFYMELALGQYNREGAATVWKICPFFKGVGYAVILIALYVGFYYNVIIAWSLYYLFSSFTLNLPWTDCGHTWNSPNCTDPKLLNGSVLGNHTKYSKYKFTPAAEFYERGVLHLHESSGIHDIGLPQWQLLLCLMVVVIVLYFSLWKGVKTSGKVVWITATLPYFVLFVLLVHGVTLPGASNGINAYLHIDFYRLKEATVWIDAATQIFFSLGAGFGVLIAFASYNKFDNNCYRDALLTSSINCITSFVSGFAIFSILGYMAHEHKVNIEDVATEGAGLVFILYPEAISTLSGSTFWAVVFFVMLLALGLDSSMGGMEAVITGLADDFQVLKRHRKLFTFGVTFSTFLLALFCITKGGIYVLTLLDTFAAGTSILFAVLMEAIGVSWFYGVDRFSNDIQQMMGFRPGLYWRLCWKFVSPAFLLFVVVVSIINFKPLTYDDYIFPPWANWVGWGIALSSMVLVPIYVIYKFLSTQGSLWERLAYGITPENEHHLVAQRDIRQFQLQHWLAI

[3] = system: homozygous mutant dopamine transporter KO mice; assay: spontaneous activity in the open field, dopamine transporter KO mice; format: in vivo, mouse
Description: Male and female wild-type and homozygous mutant dopamine transporter KO mice (n−10 mice/genotype/agent) were tested for spontaneous activity in the open field following a single injection of the vehicle or compound. […] All drugs, were given in a volume of 5 mL/kg. Animals were returned to the open field for an additional 90 min. Spontaneous activity was evaluated in an automated Omnitech Digiscan apparatus (Accuscan Instruments, Columbus, Ohio). Activity was summated at 5 min intervals over the 2 h period of testing. Horizontal activity or locomotion was Measured in terms of toe total distance covered in cm, vertical activity or rearing was expressed in terms of the total numbers of vertical beam breaks, and stereotypy was quantified in terms of repetitive breaks of a given beam or beams with intervals of less than 1 sec. For the analyses, 10 WT and 10 KO mice were run in each of the treatment groups with approximately equal numbers of males and females assigned to each group. Data were analyzed by the Statistical Package for Social Sciences programs (version 11.0 for Windows; SPSS Science, Chicago, Ill.). The results lot each dependent variable were analyzed by repeated analyses of variance. (RMANOVA) for within subjects effects (group differences over time) and between-subjects effects (tests of main effects and interactions). Bonferroni corrected pair-wise comparisons were used as the post-hoc tests. A p<0.05 was considered significant.

[4] = biological target: T2, human serotonin transporter (Homo sapiens, UniProt P31645); assay: inhibition of [125I]RTI-55 binding to hSERT in HEK293 cell membranes; settings: HEK-hSERT cells
T2 construct: expressed in transfected cells; host or cells: HEK293
T2 sequence (P31645 whole entry): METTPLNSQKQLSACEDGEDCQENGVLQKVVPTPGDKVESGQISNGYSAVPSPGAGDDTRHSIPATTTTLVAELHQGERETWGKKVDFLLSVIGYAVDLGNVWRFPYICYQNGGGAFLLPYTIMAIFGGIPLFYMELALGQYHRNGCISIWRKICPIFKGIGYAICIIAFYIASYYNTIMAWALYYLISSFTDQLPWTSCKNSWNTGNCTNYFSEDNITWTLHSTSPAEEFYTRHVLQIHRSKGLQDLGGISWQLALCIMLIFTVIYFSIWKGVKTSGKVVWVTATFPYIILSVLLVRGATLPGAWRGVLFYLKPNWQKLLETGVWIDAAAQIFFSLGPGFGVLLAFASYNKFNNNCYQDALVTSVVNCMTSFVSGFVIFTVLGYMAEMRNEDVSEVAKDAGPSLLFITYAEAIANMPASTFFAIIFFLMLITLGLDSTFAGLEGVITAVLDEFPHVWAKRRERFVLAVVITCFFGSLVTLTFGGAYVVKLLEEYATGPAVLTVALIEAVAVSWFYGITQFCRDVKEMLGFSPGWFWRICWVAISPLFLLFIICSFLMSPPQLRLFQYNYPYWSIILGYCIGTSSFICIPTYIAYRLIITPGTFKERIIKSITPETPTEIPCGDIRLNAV

[5] = biological target: T3, human dopamine transporter (Homo sapiens, UniProt Q01959); assay: inhibition of [125I]RTI-55 binding to hDAT in HEK293 cell membranes; settings: HEK-hDAT cells
T3 construct: expressed in transfected cells; host or cells: HEK293
T3 sequence (Q01959 whole entry): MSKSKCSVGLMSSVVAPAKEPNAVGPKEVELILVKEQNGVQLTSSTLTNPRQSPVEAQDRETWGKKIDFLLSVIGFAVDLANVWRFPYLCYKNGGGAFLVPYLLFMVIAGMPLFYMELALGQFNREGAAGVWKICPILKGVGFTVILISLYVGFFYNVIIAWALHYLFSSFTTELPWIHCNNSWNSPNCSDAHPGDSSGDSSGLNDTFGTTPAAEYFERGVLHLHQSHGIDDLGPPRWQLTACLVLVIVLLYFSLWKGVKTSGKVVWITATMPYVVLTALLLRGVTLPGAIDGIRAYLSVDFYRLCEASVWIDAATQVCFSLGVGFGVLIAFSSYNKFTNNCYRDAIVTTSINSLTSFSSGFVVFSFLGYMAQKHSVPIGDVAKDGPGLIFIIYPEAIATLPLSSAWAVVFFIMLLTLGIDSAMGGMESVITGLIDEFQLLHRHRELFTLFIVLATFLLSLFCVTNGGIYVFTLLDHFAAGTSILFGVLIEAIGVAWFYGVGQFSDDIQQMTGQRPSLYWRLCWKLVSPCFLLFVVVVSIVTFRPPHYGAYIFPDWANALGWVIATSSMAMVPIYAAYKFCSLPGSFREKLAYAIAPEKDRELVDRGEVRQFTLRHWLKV

[6] = system: Long-Evans rats; assay: reversal of a visual discrimination (operant, Phase II reversal training); format: in vivo, rat
Description: Forty adult male Long-Evans rats (Charles River Laboratories, Wilmington, Mass.) approximately 250 g at the start of training were used as subjects in this study. Each shipment of rats went through five-day isolation prior to introduction to the general population. Rats were allowed a minimum of one additional week acclimation before operant training began.
Test compound was dissolved in sterile 0.9% saline at 3.0, 10.0, and 30.0 mg/mL, D-amphetamine, the reference compound, was also dissolved in 0.9% sterile saline at 1.0 mg/mL of the amphetamine salt.
After operant training began, rats were housed individually. Access to food was restricted to 12-20 grams per day to maintain animals at 85-90% free feeding body weight (relative to non-restricted rats). Rats were never deprived of water and continued gain weight while in the study.
After animals reached the training criteria on Phase I of the study, they were designated to one of the treatment groups; groups were matched for performance (days to criterion per in Phase I. The study was a mixed design (dose levels×repeated training sessions). The five dose levels were 1, 3, and 10 mg/kg test compound, 0.9 percent saline (vehicle) and 1.0 mg/kg d-amphetamine sulfate (reference compound) all delivered intraperitoneal (IP) at 1.0 mL/kg.
Animals were trained in a set of 10 operant testing chambers (Med Associates) containing two retractable response levers on the front wall. There were two stimulus lights in the chamber, one situated over each lever. The food magazine is located between the two response levers on the front wall and food delivery is signaled with a magazine light. Retrieval of the food pellet is detected by a photosensor within the food magazine. Dim illumination of the chamber is provided by a houselight over the center of the front wall.
Initially animals were shaped to press a lever for food. During this phase, both levers were extended into the chamber and the animal was rewarded with a 45 mg pellet for pressing a lever. The use of a side bias is prevented by retracting a lever once it exceeds five presses beyond the number of presses on the opposite lever. After […] consecutive days with 100 lever presses subjects were moved to Phase I of the study. In this phase, animals had to learn to press the lever beneath the illuminated signal light. On each trial, one of the signal lights (randomly chosen) was illuminated for 1.0 sec prior to presentation of the levers (30.0 sec limited hold). […] After either a correct or incorrect press, or an omission, the levers were retracted for the duration of the variable inter-trial-interval (ITT; 5 s+/−2 s). After stable responding (two consecutive days better than 80% correct) was established in this phase, animals began training in the drug administration portion of the experiment (Phase II).
In Phase II, animals were divided into five groups matched on percent accuracy and number of trials to criterion. Animals in each group were dosed with one of three doses of test compound ([…], IP), amphetamine (1.0 mg/kg, IP), or with the vehicle (saline) one hour prior to behavioral training. In Phase II the discrimination was reversed from that of Phase I such that animals were now rewarded for pressing the lever distal to the cue light. Animals were dosed daily approximately 60 min prior to training. Training continued until ad animals achieved two consecutive days above 80% correct on the new discrimination.
Data were analyzed using SPSS 12.0 for Windows (SSPS Inc., Chicago, Ill.). A mixed between groups, repeated measures ANOVA was conducted cm response accuracy data. A simple one-way ANOVA was conducted on the trials to criteria data from Phase II.

[7] = system: wild-type mice; assay: spontaneous activity in the open field, wild-type mice; format: in vivo, mouse; settings: 2 mg/kg SC, relative to vehicle controls
Description: Male and female wild-type and homozygous mutant dopamine transporter KO mice (n−10 mice/genotype/agent) were tested for spontaneous activity in the open field following a single injection of the vehicle or compound. Mice were placed into the open field for 30 min and administered SC the vehicle (sterile water) 2 mg/kg amphetamine, or three concentrations of the test compound (10, 30, 100 mg/kg). All drugs, were given in a volume of 5 mL/kg. Animals were returned to the open field for an additional 90 min. Spontaneous activity was evaluated in an automated Omnitech Digiscan apparatus (Accuscan Instruments, Columbus, Ohio). Activity was summated at 5 min intervals over the 2 h period of testing. Horizontal activity or locomotion was Measured in terms of toe total distance covered in cm, vertical activity or rearing was expressed in terms of the total numbers of vertical beam breaks, and stereotypy was quantified in terms of repetitive breaks of a given beam or beams with intervals of less than 1 sec. For the analyses, 10 WT and 10 KO mice were run in each of the treatment groups with approximately equal numbers of males and females assigned to each group. Data were analyzed by the Statistical Package for Social Sciences programs (version 11.0 for Windows; SPSS Science, Chicago, Ill.). The results lot each dependent variable were analyzed by repeated analyses of variance. […]

[8] = 1.0 mg/kg IP daily (d-amphetamine sulfate), vs vehicle

Structure (SMILES)	extracellular neurotransmitter levels (dopamine, norepinephrine, serotonin) ([1]; 10 mg/kg s.c., striatum and prefrontal cortex)	extracellular dopamine concentrations in the striatum ([1]; 30 mg/kg s.c.)	extracellular norepinephrine concentrations in the prefrontal cortex ([1]; 30 mg/kg s.c.)	other transmitters investigated (extracellular levels) ([1]; 30 mg/kg s.c.)	Hill coefficient [2]	locomotor, rearing and stereotypical activities ([3]; 100 mg/kg SC, compared with 2 mg/kg amphetamine)	locomotor, rearing and stereotypical activities ([3]; 10, 30, 100 mg/kg SC single injection, 90 min post-injection)	Hill coefficient [4]	Hill coefficient [5]	percent accuracy during Phase II reversal training ([6]; 3.0 mg/kg IP daily, one hour prior to training, vs vehicle)	number of sessions (trials) required to reach criteria in Phase II ([6]; 3.0 mg/kg IP daily, vs vehicle)	percent accuracy during Phase II reversal training ([6]; 10.0 mg/kg IP daily, one hour prior to training)	number of sessions (trials) required to reach criteria in Phase II ([6]; 10.0 mg/kg IP daily, vs vehicle)	percent accuracy during Phase II reversal training ([6]; 30.0 mg/kg IP daily, one hour prior to training, vs vehicle)	number of sessions (trials) required to reach criteria in Phase II ([6]; 30.0 mg/kg IP daily, vs vehicle)	locomotor, rearing and stereotypical activities [7]	locomotor, rearing and stereotypical activities ([3]; 2 mg/kg SC, relative to vehicle controls)	number of sessions (trials) required to reach criteria in Phase II [6, 8]	percent accuracy during Phase II reversal training [6, 8]
NC(=O)OC[C@H](N)Cc1ccccc1 [Test Compound, O-carbamoyl-(D)-phenylalaninol]	no consistent effect	increases	increases	without having any significant affect	−1.45 ± 0.34	suppressed activities more efficiently than amphetamine	selectively reduced activity of the KO mice in a dose-dependent manner; also recorded: reduced activities in a dose-dependent fashion	−2.28 ± 0.05	−0.77 ± 0.12	better accuracy scores	needed fewer trials to reach criterion levels of performance	lower than the 3.0, and 30.0 dose of test compound	did not differ from the vehicle group	better accuracy scores	needed fewer trials to reach criterion levels of performance	–	–	–	–
C[C@H](N)Cc1ccccc1 [amphetamine, d-amphetamine sulfate, reference compound]	–	–	–	–	–	–	–	–	–	–	–	–	–	–	–	increased locomotor, rearing and stereotypical activities	decreased them in KO animals	needed fewer trials to reach criterion levels of performance	better accuracy scores
